Experimental data: patent publication US8242113B2, “Oxazolidinone derivatives with cyclic amidoxime or cyclic amidrazone pharmaceutical compositions thereof” (Legochem Biosciences, Inc., priority 2008, dated 2012)
Values after ≈ are worked out from the molar mass of the structure shown.

Tests used:
[1] = test system: methicillin-resistant Staphylococcus aureus (MRSA); assay: In vitro antibacterial activity, broth microdilution (MIC90); settings: read-out: Antibacterial activity MIC90, MRSA
Text: (§4) MIC90 measurement was made according to the broth microdilution method based on the CLSI document [Clinical and Laboratory Standards Institute Document.
(§5) The test compounds in DMSO solution were further diluted 20-fold with sterile distilled water.

[2] = test system: linezolid- and vancomycin-resistant Enterococcus faecalis (LVRE); assay: as above; settings: read-out: Antibacterial activity MIC90, LVRE
Text: as §4, §5

[3] = Cytotoxicity measurement by MTT assay; assay type: cell-based; settings: Chinese hamster
Text: The MTT assay is a […], colorimetric assay for mammalian cell survival and cell proliferation. It depends on the reduction of tetrazolium salt MTT by the mito-chondrial succinate dehrogenase of viable cells to form a blue formazan product. The assay measures cell respiration, and the amount of formazan product to the number of living cells present in culture. In this test, Chinese hamster ovary cells (CHO-K1) were purchased from ATCC (USA). Subcultured CHO cells were detached from the culture flask by treating with trypsin-EDTA solution, and seeded on a 96-well microplate, with 5000 cells per each well. After culturing for 24 hours in a 37° C., 5% CO2 incubator, the cells were treated with the oxazolidinone derivatives according to the present invention synthesized in the above examples, at 7 different concentrations. After further culturing for 48 hours in a 37° C., 5% CO2 incubator, 15 uL of […] MTT solution was added to each well. The cells were further incubated in the 37° C., 5% CO2 incubator for about 2 hours. Then, the culture medium was discarded and 100 uL of DMSO solution was added to each well. After agitating the microplate for 30 minutes, absorbance was measured at 550 nm using Spectramax plus 190 plate reader (Molecular Devices, USA). The absorbance decrease of the compound-treated groups compared to the non-treated control group is an indication of the decrease of surviving cells, which enables the measurement of the cytotoxicity of the compounds. The CC50 value, i.e., the concentration at which the cell proliferation is reduced to 50%, of the compounds according to the present invention was computed using the GraFit statistical analysis program (version 5.0.12) purchased from Erithacus Software after calculating the percentages of the absorbance at various concentrations as compared to the control group.

[4] = molecular target: T1, monoamine oxidase A (MAO A) (Homo sapiens, UniProt P21397); assay: MAO inhibition (MAO-GLO assay); assay type: biochemical; settings: MAO-GLO kit, compounds at 3.9-500 uM; read-out: MAOA
T1 construct: purchased Sigma-Aldrich (USA)
T1 sequence (P21397 1-527): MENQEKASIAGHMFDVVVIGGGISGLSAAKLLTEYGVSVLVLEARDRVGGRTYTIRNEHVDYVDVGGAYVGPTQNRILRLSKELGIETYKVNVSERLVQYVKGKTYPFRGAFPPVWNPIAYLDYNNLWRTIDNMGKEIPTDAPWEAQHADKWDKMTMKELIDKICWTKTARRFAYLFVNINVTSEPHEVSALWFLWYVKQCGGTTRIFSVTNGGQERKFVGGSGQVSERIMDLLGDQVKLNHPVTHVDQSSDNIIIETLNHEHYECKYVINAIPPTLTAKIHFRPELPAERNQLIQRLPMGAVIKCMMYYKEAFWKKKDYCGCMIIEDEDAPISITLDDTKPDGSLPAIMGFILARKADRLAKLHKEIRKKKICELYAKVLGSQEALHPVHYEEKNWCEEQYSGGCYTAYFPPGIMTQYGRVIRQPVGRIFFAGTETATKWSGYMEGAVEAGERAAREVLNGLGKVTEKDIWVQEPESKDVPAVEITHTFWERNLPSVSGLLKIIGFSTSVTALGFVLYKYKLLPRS
Protocol: (§1) The oxazolidinone derivatives according to the present invention synthesized in the examples were tested for inhibition of monoamine oxidase A (MAO A) and monoamine oxidase B (MAO B). MAO-GLO assay kit was purchased from Promega (USA) and MAO A and MAO B enzymes were purchased from Sigma-Aldrich (USA). From the aldehyde product resulting from the action of the MAO enzyme on the amine group of the substrate, luciferin methyl ester is produced. The luciferin detection reagent is then added to inactivate the MAO enzymes. The esterase and the luciferase included in the reagent oxidize luciferin, thereby emitting light. The light emission is detected to measure the activity of MAO. The light emission was detected using LEADseeker (Amershan Bioscience, Sweden). MAO activity was measured in the presence of the compounds according to the present invention at 3.9-500 uM and compared with the non-treated control group. Linezolid was used as a comparison compound. For the measurement of the MAO inhibition activity of the compounds represented by Chemical Formula 1, the IC50 value, i.e., the concentration of the compounds at which the enzymatic activity is inhibited by 50% (This value is related with the inhibition constant Ki), can be determined. The concentration of the inhibitor at which the rate of hydrolysis of the substrate is reduced to 50% (i.e., the IC50 value) can be determined from a log plot of the relative rate of hydrolysis (as compared to the non-inhibited control group) versus the concentration of the compounds of Chemical Formula 1.
(§2) The MAO inhibition effect of the compounds of Chemical Formula 1 was measured by determining the inhibition constant Ki. Ki=IC50/{1+(┌S┐/Km)} Equation 1
(§3) In Equation 1, Km is the Michaelis-Menten constant, i.e., the concentration of the substrate at which the rate of enzymatic reaction is half of the maximum, and IC50 is the concentration of the inhibitor at which the rate of the hydrolysis of the substrate is reduced by 50%. The IC50 value was measured by plotting a log plot of the relative rate of hydrolysis (as compared to the non-inhibited control group) versus the concentration of the compounds of Chemical Formula 1. GraFit statistical analysis program (version 5.0.12) purchased from Erithacus Software was used.

[5] = molecular target: T2, monoamine oxidase B (MAO B) (Homo sapiens, UniProt P27338); assay: MAO inhibition (MAO-GLO assay); assay type: biochemical; settings: MAO-GLO kit, compounds at 3.9-500 uM; read-out: MAOB
T2 construct: purchased Sigma-Aldrich (USA)
T2 sequence (P27338 1-520): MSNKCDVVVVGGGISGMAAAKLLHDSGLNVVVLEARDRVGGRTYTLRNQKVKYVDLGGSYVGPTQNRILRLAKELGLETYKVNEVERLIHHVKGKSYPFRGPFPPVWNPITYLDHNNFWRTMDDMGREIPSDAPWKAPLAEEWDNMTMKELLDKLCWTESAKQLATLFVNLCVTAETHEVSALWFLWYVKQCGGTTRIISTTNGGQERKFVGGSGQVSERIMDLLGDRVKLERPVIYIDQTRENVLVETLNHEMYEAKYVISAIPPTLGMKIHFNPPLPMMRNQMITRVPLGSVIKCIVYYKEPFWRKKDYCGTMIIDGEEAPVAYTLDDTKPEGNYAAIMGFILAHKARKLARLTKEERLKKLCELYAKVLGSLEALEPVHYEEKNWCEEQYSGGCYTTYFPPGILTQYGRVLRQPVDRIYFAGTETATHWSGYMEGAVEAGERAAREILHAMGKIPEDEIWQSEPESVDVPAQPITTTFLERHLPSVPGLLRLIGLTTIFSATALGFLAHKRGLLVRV
Protocol: as §1, §2, §3

Structure (SMILES)	MIC90 [1]	MIC [2]	IC50 [4]	IC50 [5]	CC50 at 48 h [3]
COC(=S)NC[C@H]1CN(c2ccc(N3C=NN(CC#N)CC3)c(F)c2)C(=O)O1 [Compound 65]	0.5 µg/mL (≈ 1.23 µM)	4 µg/mL (≈ 9.84 µM)	–	–	–
CC(=O)NC[C@H]1CN(c2ccc(N3C=NN(C=O)CC3)cc2)C(=O)O1 [Compound 95]	1 µg/mL (≈ 2.9 µM)	16 µg/mL (≈ 46.3 µM)	–	–	–
CC(=O)NC[C@H]1CN(c2ccc(N3C=NNCC3)c(F)c2)C(=O)O1 [Compound 2]	2 µg/mL (≈ 5.96 µM)	16 µg/mL (≈ 47.7 µM)	–	–	–
CCOC(=O)CN1CCN(c2ccc(N3C[C@H](CNC(=S)OC)OC3=O)cc2F)C=N1 [Compound 69]	2 µg/mL (≈ 4.41 µM)	8 µg/mL (≈ 17.6 µM)	–	–	–
Cn1nnc(-c2ccc(-c3ccc(N4C[C@H](CO)OC4=O)cc3F)cn2)n1 [TR-700, reference compound]	–	–	< 2 µM	6.1 µM	28 µM
O=CN1CCN(c2ccc(N3C[C@H](Cn4ccnn4)OC3=O)cc2)C=N1 [Compound 99]	2 µg/mL (≈ 5.63 µM)	32 µg/mL (≈ 90.1 µM)	–	–	–
CC(=S)NC[C@H]1CN(c2ccc(N3C=NNCC3)c(F)c2)C(=O)O1 [Compound 74]	0.25 µg/mL (≈ 0.711 µM)	2 µg/mL (≈ 5.69 µM)	–	–	–
CC(=O)NC[C@H]1CN(c2ccc(N3C=NN(C(=O)C(F)F)CC3)c(F)c2)C(=O)O1 [Compound 17]	1 µg/mL (≈ 2.42 µM)	8 µg/mL (≈ 19.4 µM)	–	–	–
O=CN1CCN(c2c(F)cc(N3C[C@H](Cn4ccnn4)OC3=O)cc2F)C=N1 [Compound 103]	0.25 µg/mL (≈ 0.639 µM)	16 µg/mL (≈ 40.9 µM)	–	–	–
C#CCN1CCN(c2ccc(N3C[C@H](CNc4ccon4)OC3=O)cc2F)C=N1 [Compound 91]	0.5 µg/mL (≈ 1.26 µM)	8 µg/mL (≈ 20.1 µM)	–	–	–

The next lines start with results.

MIC90 [1]	MIC [2]	IC50 [4]	IC50 [5]	Structure (SMILES)	CC50 at 48 h [3]
1 µg/mL (≈ 2.31 µM)	4 µg/mL (≈ 9.25 µM)	–	–	O=CN1CCN(c2ccc(N3C[C@H](CNC(=O)C(Cl)Cl)OC3=O)cc2F)C=N1 [Compound 51]	–
8 µg/mL (≈ 20.5 µM)	> 64 µg/mL	–	–	O=CN1CCN(c2ccc(N3C[C@H](COc4ccon4)OC3=O)cc2F)C=N1 [Compound 79]	–
0.5 µg/mL (≈ 1.39 µM)	8 µg/mL (≈ 22.2 µM)	–	–	CC(=O)NC[C@H]1CN(c2ccc(N3C=NN(C#N)CC3)c(F)c2)C(=O)O1 [Compound 9]	–
0.25 µg/mL (≈ 0.713 µM)	4 µg/mL (≈ 11.4 µM)	89 µM	84 µM	COC(=S)NC[C@H]1CN(c2ccc(N3C=NOCC3)cc2)C(=O)O1 [Compound 102]	> 130 µM
0.5 µg/mL (≈ 1.19 µM)	4 µg/mL (≈ 9.49 µM)	–	–	COC(=S)NC[C@H]1CN(c2ccc(N3C=NN(CC4CC4)CC3)c(F)c2)C(=O)O1 [Compound 67]	–
2 µg/mL (≈ 4.72 µM)	8 µg/mL (≈ 18.9 µM)	–	–	CC(C)OC(=S)NC[C@H]1CN(c2ccc(N3C=NN(C=O)CC3)c(F)c2)C(=O)O1 [Compound 55]	–
1 µg/mL (≈ 2.43 µM)	4 µg/mL (≈ 9.72 µM)	–	–	COC(=S)NC[C@H]1CN(c2ccc(N3C=NN(CCO)CC3)c(F)c2)C(=O)O1 [Compound 70]	–
0.5 µg/mL (≈ 1.39 µM)	8 µg/mL (≈ 22.2 µM)	–	–	O=C1O[C@@H](CNc2ccon2)CN1c1ccc(N2C=NNCC2)c(F)c1 [Compound 86]	–
